Laboratory results as given in ChEMBL document CHEMBL4346724, “Porphyrinoid photosensitizers mediated photodynamic inactivation against bacteria” (Eur J Med Chem, 2019).

Experiments:
[1] = system: Mycobacterium tuberculosis; assay: Photodynamic antibacterial activity against multidrug resistant Mycobacterium tuberculosis assessed as reduction in bacterial burden at 10 ug/ml preincubated for 2 hrs in dark followed by light irradiation at 50 J/cm2 for 500 secs; assay type: functional
[2] = system: Mycobacterium tuberculosis; assay: Photodynamic antibacterial activity against extensively drug resistant Mycobacterium tuberculosis assessed as reduction in bacterial burden at 10 ug/ml preincubated for 2 hrs in dark followed by light irradiation at 50 J/cm2 for 500 secs; assay type: functional

## C=Cc1c(C)c2cc3nc(c(C=O)c4[nH]c(cc5nc(cc1[nH]2)C(C)=C5C)c(C)c4C(=O)O)[C@@H](CCC(=O)O)[C@@H]3C
[1]
  log(activity): 3.1
[2]
  log(activity): 2.8
